Experiments:
Experiment in all cases: KINOMEscan competition binding
Conditions in all cases: compound 10.0 µM
FLT1 (human) = FLT1 (human) (UniProt P17948)
[1] = tested on: EGFR (human), P00533 [T790M/L858R]
GRK1 (human) = GRK1 (human) (UniProt Q15835)
DAPK3 (human) = DAPK3 (human) (UniProt O43293)
MKNK2 (human) = MKNK2 (human) (UniProt Q9HBH9)
PAK6 (human) = PAK6 (human) (UniProt Q9NQU5)
BRAF (human) = BRAF (human) (UniProt P15056)
GSK3A (human) = GSK3A (human) (UniProt P49840)
DYRK1B (human) = DYRK1B (human) (UniProt Q9Y463)
[2] = tested on: RET (human), P07949 [M918T]
Sequence of RET (human), P07949 [M918T] (P07949 whole entry M918T, looked up): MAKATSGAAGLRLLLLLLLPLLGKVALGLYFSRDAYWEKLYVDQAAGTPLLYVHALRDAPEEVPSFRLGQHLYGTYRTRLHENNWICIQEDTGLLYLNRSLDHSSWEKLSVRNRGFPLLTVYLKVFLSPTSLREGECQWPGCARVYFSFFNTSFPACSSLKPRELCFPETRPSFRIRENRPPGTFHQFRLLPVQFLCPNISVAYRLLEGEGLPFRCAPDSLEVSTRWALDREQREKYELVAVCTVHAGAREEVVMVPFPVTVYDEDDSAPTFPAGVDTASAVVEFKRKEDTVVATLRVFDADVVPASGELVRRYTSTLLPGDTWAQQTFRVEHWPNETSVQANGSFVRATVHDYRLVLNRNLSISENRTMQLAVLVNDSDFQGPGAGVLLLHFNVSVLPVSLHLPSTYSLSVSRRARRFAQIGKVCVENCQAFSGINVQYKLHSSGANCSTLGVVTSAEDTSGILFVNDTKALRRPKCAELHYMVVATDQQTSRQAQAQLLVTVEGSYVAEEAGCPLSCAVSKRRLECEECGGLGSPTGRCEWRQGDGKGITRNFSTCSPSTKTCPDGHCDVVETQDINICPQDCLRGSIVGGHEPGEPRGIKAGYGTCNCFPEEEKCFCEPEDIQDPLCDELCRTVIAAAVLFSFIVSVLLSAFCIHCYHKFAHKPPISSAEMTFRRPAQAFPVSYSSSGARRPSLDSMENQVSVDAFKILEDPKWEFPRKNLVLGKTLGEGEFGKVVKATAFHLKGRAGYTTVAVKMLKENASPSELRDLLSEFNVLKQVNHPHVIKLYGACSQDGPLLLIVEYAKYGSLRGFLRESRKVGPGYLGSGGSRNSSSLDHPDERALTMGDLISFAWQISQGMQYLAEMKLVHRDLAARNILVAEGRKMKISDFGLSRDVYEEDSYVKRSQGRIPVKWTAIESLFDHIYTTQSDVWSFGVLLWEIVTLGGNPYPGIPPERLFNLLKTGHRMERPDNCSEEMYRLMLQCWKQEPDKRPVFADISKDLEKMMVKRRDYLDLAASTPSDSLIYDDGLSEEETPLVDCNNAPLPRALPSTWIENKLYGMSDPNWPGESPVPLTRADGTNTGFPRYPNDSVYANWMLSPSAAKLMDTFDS

ZAP70 (human) = ZAP70 (human) (UniProt P43403)
MLTK (human) = MLTK (human) (UniProt Q9NYL2)
SLK (human) = SLK (human) (UniProt Q9H2G2)
PIM2 (human) = PIM2 (human) (UniProt Q9P1W9)
Sequence of PIM2 (human) (Q9P1W9 whole entry, looked up): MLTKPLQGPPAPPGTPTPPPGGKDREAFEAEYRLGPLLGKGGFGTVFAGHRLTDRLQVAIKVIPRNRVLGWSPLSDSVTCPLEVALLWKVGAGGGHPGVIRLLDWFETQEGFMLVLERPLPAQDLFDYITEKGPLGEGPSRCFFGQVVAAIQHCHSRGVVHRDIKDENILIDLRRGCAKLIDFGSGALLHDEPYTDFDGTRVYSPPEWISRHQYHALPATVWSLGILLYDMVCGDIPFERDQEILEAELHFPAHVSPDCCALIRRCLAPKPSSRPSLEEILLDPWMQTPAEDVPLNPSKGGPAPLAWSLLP

MAPK4 (human) = MAPK4 (human) (UniProt P31152)
[3] = tested on: FLT3 (human), P36888 [D835Y]
PLK3 (human) = PLK3 (human) (UniProt Q9H4B4)
RIPK2 (human) = RIPK2 (human) (UniProt O43353)
INSRR (human) = INSRR (human) (UniProt P14616)
ACVR2A (human) = ACVR2A (human) (UniProt P27037)
Sequence of ACVR2A (human) (P27037 whole entry, looked up): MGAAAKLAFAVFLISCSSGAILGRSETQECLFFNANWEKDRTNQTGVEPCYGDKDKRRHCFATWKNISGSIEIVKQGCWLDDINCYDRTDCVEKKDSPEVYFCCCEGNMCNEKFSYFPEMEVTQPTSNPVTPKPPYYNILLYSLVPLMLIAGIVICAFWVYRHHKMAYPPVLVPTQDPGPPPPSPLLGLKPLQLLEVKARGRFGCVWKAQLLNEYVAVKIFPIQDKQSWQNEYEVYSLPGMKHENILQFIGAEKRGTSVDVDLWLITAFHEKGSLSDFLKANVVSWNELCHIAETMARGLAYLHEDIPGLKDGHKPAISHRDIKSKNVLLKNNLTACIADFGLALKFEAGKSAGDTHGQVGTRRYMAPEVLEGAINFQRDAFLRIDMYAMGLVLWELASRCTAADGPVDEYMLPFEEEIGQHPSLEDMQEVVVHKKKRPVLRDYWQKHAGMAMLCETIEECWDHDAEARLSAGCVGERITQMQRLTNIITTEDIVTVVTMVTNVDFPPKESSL

BLK (human) = BLK (human) (UniProt P51451)
Sequence of BLK (human) (P51451 whole entry, looked up): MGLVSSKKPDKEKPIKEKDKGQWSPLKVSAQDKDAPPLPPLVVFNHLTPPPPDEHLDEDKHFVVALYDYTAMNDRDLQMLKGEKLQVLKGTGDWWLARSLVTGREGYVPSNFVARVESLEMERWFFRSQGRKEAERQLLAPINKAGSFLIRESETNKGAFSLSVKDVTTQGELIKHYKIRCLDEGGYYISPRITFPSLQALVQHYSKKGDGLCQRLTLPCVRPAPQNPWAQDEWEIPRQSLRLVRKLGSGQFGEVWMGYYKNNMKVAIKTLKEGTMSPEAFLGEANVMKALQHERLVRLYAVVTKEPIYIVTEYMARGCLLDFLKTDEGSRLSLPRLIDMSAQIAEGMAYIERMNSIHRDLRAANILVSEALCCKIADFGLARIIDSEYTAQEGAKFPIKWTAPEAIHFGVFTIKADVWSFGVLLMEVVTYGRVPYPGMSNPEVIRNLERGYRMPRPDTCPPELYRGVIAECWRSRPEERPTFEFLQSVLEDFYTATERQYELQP

ADCK4 (human) = ADCK4 (human) (UniProt Q96D53)
CHEK2 (human) = CHEK2 (human) (UniProt O96017)
BMP2K (human) = BMP2K (human) (UniProt Q9NSY1)
ABL2 (human) = ABL2 (human) (UniProt P42684)
ACVR1 (human) = ACVR1 (human) (UniProt Q04771)
MAP2K5 (human) = MAP2K5 (human) (UniProt Q13163)
STK38 (human) = STK38 (human) (UniProt Q15208)
IRAK4 (human) = IRAK4 (human) (UniProt Q9NWZ3)
SRC (human) = SRC (human) (UniProt P12931)
MYLK (human) = MYLK (human) (UniProt Q15746)
CSNK2A1 (human) = CSNK2A1 (human) (UniProt P68400)
Sequence of CSNK2A1 (human) (P68400 whole entry, looked up): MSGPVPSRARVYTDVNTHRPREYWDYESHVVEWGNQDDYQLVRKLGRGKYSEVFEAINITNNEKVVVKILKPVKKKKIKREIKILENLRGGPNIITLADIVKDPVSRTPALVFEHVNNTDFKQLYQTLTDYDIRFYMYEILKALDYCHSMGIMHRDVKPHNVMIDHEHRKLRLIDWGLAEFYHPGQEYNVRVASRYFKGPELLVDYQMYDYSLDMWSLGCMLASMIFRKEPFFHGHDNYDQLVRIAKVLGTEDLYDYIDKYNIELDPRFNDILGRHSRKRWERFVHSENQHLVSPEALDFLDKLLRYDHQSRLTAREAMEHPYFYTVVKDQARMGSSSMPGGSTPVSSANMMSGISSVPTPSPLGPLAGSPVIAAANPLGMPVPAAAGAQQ

[4] = tested on: RET (human), P07949 [V804M]
Sequence of RET (human), P07949 [V804M] (P07949 whole entry V804M, looked up): as the sequence (P07949 whole entry M918T, looked up) above, with V804M, T918M counted along it

CDK16 (human) = CDK16 (human) (UniProt Q00536)
EIF2AK1 (human) = EIF2AK1 (human) (UniProt Q9BQI3)
TAOK2 (human) = TAOK2 (human) (UniProt Q9UL54)
ACVR2B (human) = ACVR2B (human) (UniProt Q13705)
CAMK2D (human) = CAMK2D (human) (UniProt Q13557)
CAMKK1 (human) = CAMKK1 (human) (UniProt Q8N5S9)
TSSK1B (human) = TSSK1B (human) (UniProt Q9BXA7)
ACVR1B (human) = ACVR1B (human) (UniProt P36896)

Sequence of FLT1 (human) (P17948 whole entry, looked up): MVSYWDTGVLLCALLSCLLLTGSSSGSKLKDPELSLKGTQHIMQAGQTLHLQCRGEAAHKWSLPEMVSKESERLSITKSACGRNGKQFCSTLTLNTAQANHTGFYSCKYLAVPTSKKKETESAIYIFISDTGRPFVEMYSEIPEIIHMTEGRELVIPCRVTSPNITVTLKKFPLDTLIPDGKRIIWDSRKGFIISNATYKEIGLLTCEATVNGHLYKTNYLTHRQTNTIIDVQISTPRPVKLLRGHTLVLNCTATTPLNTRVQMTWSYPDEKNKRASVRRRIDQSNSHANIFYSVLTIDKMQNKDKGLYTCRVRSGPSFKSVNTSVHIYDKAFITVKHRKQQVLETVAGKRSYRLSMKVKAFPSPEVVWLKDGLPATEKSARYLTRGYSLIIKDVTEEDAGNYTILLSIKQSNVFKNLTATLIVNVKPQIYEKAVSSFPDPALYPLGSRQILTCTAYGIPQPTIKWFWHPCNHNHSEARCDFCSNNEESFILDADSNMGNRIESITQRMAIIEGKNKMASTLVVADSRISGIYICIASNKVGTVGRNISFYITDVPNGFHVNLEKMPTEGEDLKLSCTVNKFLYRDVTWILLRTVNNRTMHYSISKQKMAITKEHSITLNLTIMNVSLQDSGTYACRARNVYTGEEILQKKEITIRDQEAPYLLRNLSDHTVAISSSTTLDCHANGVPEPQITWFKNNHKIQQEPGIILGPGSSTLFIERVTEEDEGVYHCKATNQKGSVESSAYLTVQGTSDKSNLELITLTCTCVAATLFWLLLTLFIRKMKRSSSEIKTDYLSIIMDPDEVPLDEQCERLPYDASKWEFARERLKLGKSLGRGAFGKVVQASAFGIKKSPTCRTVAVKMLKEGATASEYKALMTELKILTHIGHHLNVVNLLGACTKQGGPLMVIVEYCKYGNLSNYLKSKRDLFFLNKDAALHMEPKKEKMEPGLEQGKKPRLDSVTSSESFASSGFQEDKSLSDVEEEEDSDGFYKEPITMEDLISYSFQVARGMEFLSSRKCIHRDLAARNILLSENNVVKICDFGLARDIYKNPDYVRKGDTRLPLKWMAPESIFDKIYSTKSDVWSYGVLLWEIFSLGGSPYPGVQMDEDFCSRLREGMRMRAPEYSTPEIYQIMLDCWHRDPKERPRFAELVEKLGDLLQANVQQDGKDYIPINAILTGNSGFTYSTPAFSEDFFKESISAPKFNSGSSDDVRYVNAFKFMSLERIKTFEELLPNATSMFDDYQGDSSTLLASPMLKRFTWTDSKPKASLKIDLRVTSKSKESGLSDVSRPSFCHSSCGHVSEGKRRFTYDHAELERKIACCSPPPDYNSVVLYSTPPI
Sequence of GRK1 (human) (Q15835 whole entry, looked up): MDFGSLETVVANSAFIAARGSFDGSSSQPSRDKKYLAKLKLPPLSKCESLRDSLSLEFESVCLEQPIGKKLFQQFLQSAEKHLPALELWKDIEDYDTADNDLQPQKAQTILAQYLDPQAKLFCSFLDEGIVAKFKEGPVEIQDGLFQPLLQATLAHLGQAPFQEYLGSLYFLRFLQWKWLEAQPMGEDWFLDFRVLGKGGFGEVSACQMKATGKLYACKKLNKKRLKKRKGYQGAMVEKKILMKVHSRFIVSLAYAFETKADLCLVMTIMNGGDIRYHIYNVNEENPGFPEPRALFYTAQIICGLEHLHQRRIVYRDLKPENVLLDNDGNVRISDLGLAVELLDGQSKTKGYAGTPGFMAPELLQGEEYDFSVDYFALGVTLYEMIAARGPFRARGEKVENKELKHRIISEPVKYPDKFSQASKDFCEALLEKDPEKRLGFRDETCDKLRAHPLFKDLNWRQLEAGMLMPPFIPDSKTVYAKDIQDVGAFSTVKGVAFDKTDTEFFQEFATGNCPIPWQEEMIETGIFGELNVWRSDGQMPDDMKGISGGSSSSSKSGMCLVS

Question: For `COc1ccc(-c2ccc3c(N4CCOCC4)nc(N4C[C@@H](C)O[C@@H](C)C4)nc3n2)cc1CO`, which kinase still bound, per cent of control (FLT1 (human)) is on record?
Answer: 92%

Question: And the kinase still bound, per cent of control [1]?
Answer: 100%

Question: What about the kinase still bound, per cent of control (GRK1 (human)) of the same molecule?
Answer: 98%

Question: What about the kinase still bound, per cent of control (DAPK3 (human)) of the same molecule?
Answer: 89%

Question: And the kinase still bound, per cent of control (MKNK2 (human))?
Answer: 75%

Question: And the kinase still bound, per cent of control (PAK6 (human))?
Answer: 90%

Question: And the kinase still bound, per cent of control (BRAF (human))?
Answer: 81%

Question: And the kinase still bound, per cent of control (GSK3A (human))?
Answer: 100%

Question: What about the kinase still bound, per cent of control (DYRK1B (human)) of the same molecule?
Answer: 85%

Question: What about the kinase still bound, per cent of control [2] of the same molecule?
Answer: 100%

Question: And the kinase still bound, per cent of control (ZAP70 (human))?
Answer: 83%

Question: What about the kinase still bound, per cent of control (MLTK (human)) of the same molecule?
Answer: 100%

Question: What about the kinase still bound, per cent of control (SLK (human)) of the same molecule?
Answer: 98%

Question: What about the kinase still bound, per cent of control (PIM2 (human)) of the same molecule?
Answer: 100%

Question: What about the kinase still bound, per cent of control (MAPK4 (human)) of the same molecule?
Answer: 100%

Question: And the kinase still bound, per cent of control [3]?
Answer: 86%

Question: What about the kinase still bound, per cent of control (PLK3 (human)) of the same molecule?
Answer: 92%

Question: And the kinase still bound, per cent of control (RIPK2 (human))?
Answer: 100%

Question: And the kinase still bound, per cent of control (INSRR (human))?
Answer: 100%

Question: And the kinase still bound, per cent of control (ACVR2A (human))?
Answer: 100%

Question: What about the kinase still bound, per cent of control (BLK (human)) of the same molecule?
Answer: 100%

Question: What about the kinase still bound, per cent of control (ADCK4 (human)) of the same molecule?
Answer: 87%

Question: What about the kinase still bound, per cent of control (CHEK2 (human)) of the same molecule?
Answer: 100%

Question: What about the kinase still bound, per cent of control (BMP2K (human)) of the same molecule?
Answer: 98%

Question: What about the kinase still bound, per cent of control (ABL2 (human)) of the same molecule?
Answer: 95%

Question: What about the kinase still bound, per cent of control (ACVR1 (human)) of the same molecule?
Answer: 100%

Question: What about the kinase still bound, per cent of control (MAP2K5 (human)) of the same molecule?
Answer: 100%

Question: And the kinase still bound, per cent of control (STK38 (human))?
Answer: 55%

Question: And the kinase still bound, per cent of control (IRAK4 (human))?
Answer: 99%

Question: What about the kinase still bound, per cent of control (SRC (human)) of the same molecule?
Answer: 100%

Question: And the per cent of control (MYLK (human))?
Answer: 57%

Question: And the kinase still bound, per cent of control (CSNK2A1 (human))?
Answer: 96%

Question: What about the kinase still bound, per cent of control [4] of the same molecule?
Answer: 94%

Question: What about the per cent of control (CDK16 (human)) of the same molecule?
Answer: 100%

Question: And the kinase still bound, per cent of control (EIF2AK1 (human))?
Answer: 88%

Question: And the kinase still bound, per cent of control (TAOK2 (human))?
Answer: 76%

Question: And the kinase still bound, per cent of control (ACVR2B (human))?
Answer: 100%

Question: And the kinase still bound, per cent of control (CAMK2D (human))?
Answer: 100%

Question: And the kinase still bound, per cent of control (CAMKK1 (human))?
Answer: 100%

Question: What about the kinase still bound, per cent of control (TSSK1B (human)) of the same molecule?
Answer: 91%

Question: And the kinase still bound, per cent of control (ACVR1B (human))?
Answer: 91%

Question: For `COC(=O)Nc1ccc(-c2nc(N3CCOCC3)c3cnn(C4CCN(C(=O)OC)CC4)c3n2)cc1`, which kinase still bound, per cent of control (FLT1 (human)) is on record?
Answer: 100%

Question: What about the kinase still bound, per cent of control [1] of the same molecule?
Answer: 100%

Question: What about the kinase still bound, per cent of control (GRK1 (human)) of the same molecule?
Answer: 100%

Question: And the kinase still bound, per cent of control (DAPK3 (human))?
Answer: 92%

Question: What about the kinase still bound, per cent of control (MKNK2 (human)) of the same molecule?
Answer: 40%

Question: And the kinase still bound, per cent of control (PAK6 (human))?
Answer: 100%

Question: What about the kinase still bound, per cent of control (BRAF (human)) of the same molecule?
Answer: 74%

Question: And the kinase still bound, per cent of control (GSK3A (human))?
Answer: 100%

Question: And the kinase still bound, per cent of control (DYRK1B (human))?
Answer: 93%

Question: And the kinase still bound, per cent of control [2]?
Answer: 87%

Question: What about the kinase still bound, per cent of control (ZAP70 (human)) of the same molecule?
Answer: 98%

Question: And the kinase still bound, per cent of control (MLTK (human))?
Answer: 97%

Question: What about the kinase still bound, per cent of control (SLK (human)) of the same molecule?
Answer: 70%

Question: What about the kinase still bound, per cent of control (PIM2 (human)) of the same molecule?
Answer: 100%

Question: What about the kinase still bound, per cent of control (MAPK4 (human)) of the same molecule?
Answer: 68%

Question: And the kinase still bound, per cent of control [3]?
Answer: 100%

Question: And the kinase still bound, per cent of control (PLK3 (human))?
Answer: 93%

Question: What about the kinase still bound, per cent of control (RIPK2 (human)) of the same molecule?
Answer: 65%

Question: And the kinase still bound, per cent of control (INSRR (human))?
Answer: 100%

Question: And the kinase still bound, per cent of control (ACVR2A (human))?
Answer: 100%

Question: What about the kinase still bound, per cent of control (BLK (human)) of the same molecule?
Answer: 100%

Question: What about the kinase still bound, per cent of control (ADCK4 (human)) of the same molecule?
Answer: 73%

Question: What about the kinase still bound, per cent of control (CHEK2 (human)) of the same molecule?
Answer: 100%

Question: What about the kinase still bound, per cent of control (BMP2K (human)) of the same molecule?
Answer: 99%

Question: And the kinase still bound, per cent of control (ABL2 (human))?
Answer: 100%

Question: And the kinase still bound, per cent of control (ACVR1 (human))?
Answer: 100%

Question: And the kinase still bound, per cent of control (MAP2K5 (human))?
Answer: 100%

Question: What about the kinase still bound, per cent of control (STK38 (human)) of the same molecule?
Answer: 88%

Question: What about the kinase still bound, per cent of control (IRAK4 (human)) of the same molecule?
Answer: 82%

Question: And the kinase still bound, per cent of control (SRC (human))?
Answer: 95%

Question: And the per cent of control (MYLK (human))?
Answer: 81%

Question: And the kinase still bound, per cent of control (CSNK2A1 (human))?
Answer: 62%

Question: And the kinase still bound, per cent of control [4]?
Answer: 100%

Question: What about the per cent of control (CDK16 (human)) of the same molecule?
Answer: 100%

Question: And the kinase still bound, per cent of control (EIF2AK1 (human))?
Answer: 56%

Question: What about the kinase still bound, per cent of control (TAOK2 (human)) of the same molecule?
Answer: 73%

Question: And the kinase still bound, per cent of control (ACVR2B (human))?
Answer: 100%

Question: And the kinase still bound, per cent of control (CAMK2D (human))?
Answer: 100%

Question: What about the kinase still bound, per cent of control (CAMKK1 (human)) of the same molecule?
Answer: 100%

Question: What about the kinase still bound, per cent of control (TSSK1B (human)) of the same molecule?
Answer: 100%

Question: And the kinase still bound, per cent of control (ACVR1B (human))?
Answer: 100%

— the kinase profiling compilation of Christmann-Franck et al. (2016)
